Patent US9115145B2, “Tocotrienol derivatives and associated methods” (FIRST TECH INTERNATIONAL LIMITED, priority 2011, dated 2015)

system: +SA mammary epithelial cells; assay: MTT assay of +SA cells (antiproliferative activity); format: cell-based, mouse; settings: Mus musculus, +SA cell, 24 hours treatment, read-out: IC50 antiproliferative activity against +SA mammary epithelial cells
Method: The antiproliferative activities of Compounds 3-44 against the highly metastatic malignant +SA mammary epithelial cells were evaluated by MTT assay. Materials for the assay were purchased from Sigma Chemical Company (St. Louis, Mo.) unless otherwise stated. The highly malignant +SA mouse mammary epithelial cell line was serially passaged at subconfluent cell density. The +SA mammary tumor cell line was derived from an adenocarcinoma that developed spontaneously in a BALB/c female mouse. +SA cells were maintained in serum-free defined medium consisting of Dulbecco's modified Eagle's medium (DMEM)/F12 containing 5 mg/mL bovine serum albumin (BSA), 10 […], 100 U/mL soybean trypsin inhibitor, 100 U/mL penicillin G, 0.1 mg/mL streptomycin, […], and 10 ng/mL epidermal growth factor. For subculturing, cells were rinsed twice with sterile Ca2+ and Mg2+-free phosphate buffered saline (PBS) and incubated in 0.05% trypsin containing 0.025% EDTA in PBS for 5 min at 37° C. The released cells were centrifuged, resuspended in fresh media and counted using hemocytometer. A stock solution of the compounds was prepared in DMSO. Once dissolved, this solution was added to a small volume of sterile 10% BSA in water and incubated overnight at 37° C. This solution conjugated to BSA was used to prepare various concentrations (0-40 μM) of tocotrienol analogs. DMSO was added to all treatment media such that the final DMSO concentration was the same in all treatment groups within a given experiment and was always less than 0.1%. For cytotoxic studies, cells were seeded at a density of 5×10^4 cells/well (+SA cells) or 1×10^5 cells/well (CL-S1 cells) (6 wells/group) in 24-well culture plates and allowed to grow in their respective control media. After 3 days incubation period (approximately 70% confluency), cells were divided equally into various treatment groups and exposed to their respective treatments for a 24 hours incubation period. Following the 24 hours treatment period, cell viability was measured using the MTT assay.
+SA Mammary epithelial cell viable number was determined by a 3-(4,5-dimethylthiazol-2yl)-2,5-diphenyl tetrazolium bromide (MTT) colorimetric assay. On the assay day, treatment medium was replaced with fresh control medium containing 0.42 mg/mL MTT, and the cells in 24-well plates were incubated at 37° C. for 4 hours. Afterward, the medium was removed, and the MTT crystals were dissolved in isopropyl alcohol (1 mL/well). The optical density of each sample was read at 570 nm on a microplate reader (SpectraCount, Packard BioScience Company), against a blank prepared from cell-free cultures. The number of cells/well was calculated against a standard curve prepared by plating various concentrations of cells, as determined by hemocytometer, at the start of each experiment.
Differences among the various treatment groups in +SA cell cytotoxic studies were determined by analysis of variance (ANOVA) followed by Dunnett's t-test. The difference of P<0.05 was considered to be statistically significant as compared with vehicle-treated controls unless separately described. Linear regression analysis of treatment effects on viable cell number in growth and cytotoxicity studies was used to determine the 50% growth inhibition concentration (IC50) for individual treatments.

| SMILES | IC50 |
| --- | --- |
| CC(C)=CCC/C(C)=C/CC/C(C)=C/CC[C@]1(C)CCc2c3c(c(C)c(C)c2O1)OCN(C)C3 [Compound 3, (R)-2,5,6,8-tetramethyl-8-((3E,7E)-4,8,12-trimethyltrideca-3,7,11-trienyl)-1,2,3,8,9,10-hexahydrochromeno[5,6-e][1,3]oxazine] | 1200 to 2200 nM |
| CC(C)=CCC/C(C)=C/CC/C(C)=C/CC[C@]1(C)CCc2c3c(cc(C)c2O1)OCN(C)C3 [Compound 4, (R)-2,6,8-trimethyl-8-((3E,7E)-4,8,12-trimethyltrideca-3,7,11-trienyl)-1,2,3,8,9,10-hexahydrochromeno[5,6-e][1,3]oxazine] | 1200 to 2200 nM |
| CC(C)=CCC/C(C)=C/CC/C(C)=C/CC[C@]1(C)CCc2c(CO)c(O)c(C)c(C)c2O1 [Compound 32, (R)-5-(hydroxymethyl)-2,7,8-trimethyl-2-((3E,7E)-4,8,12-trimethyltrideca-3,7,11-trienyl)chroman-6-ol] | 2600 nM |
| CC(C)=CCC/C(C)=C/CC/C(C)=C/CC[C@]1(C)CCc2c(CO)c(O)cc(C)c2O1 [Compound 33, (R)-5-(hydroxymethyl)-2,8-dimethyl-2-((3E,7E)-4,8,12-trimethyltrideca-3,7,11-trienyl)chroman-6-ol] | ≥ 6600 nM |
| CC(C)=CCC/C(C)=C/CC/C(C)=C/CC[C@]1(C)CCc2cc(O)c(CO)c(C)c2O1 [Compound 34, (R)-7-(hydroxymethyl)-2,8-dimethyl-2-((3E,7E)-4,8,12-trimethyltrideca-3,7,11-trienyl)chroman-6-ol] | ≥ 6600 nM |

same assay, conditions: described from FIG. 32 / text

| SMILES | antiproliferative activity against +SA mammary tumor cells (in words) |
| --- | --- |
| CCOC(CCN1COc2c(C)c(C)c3c(c2C1)CC[C@@](C)(CC/C=C(\C)CC/C=C(\C)CCC=C(C)C)O3)OCC [Compound 14, (R)-2-(3,3-diethoxypropyl)-5,6,8-trimethyl-8-((3E,7E)-4,8,12-trimethyltrideca-3,7,11-trienyl)-1,2,3,8,9,10-hexahydrochromeno[5,6-e][1,3]oxazine] | significantly decreased activity |
| CC(C)=CCC/C(C)=C/CC/C(C)=C/CC[C@]1(C)CCc2c3c(cc(C)c2O1)OCN(CCCCC(=O)O)C3 [Compound 20, 5-((R)-6,8-dimethyl-8-((3E,7E)-4,8,12-trimethyltrideca-3,7,11-trienyl)-9,10-dihydrochromeno[5,6-e][1,3]oxazin-2(1H,3H,8H)-yl)pentanoic acid] | strong activity but less so than the aforementioned compounds |
| CC(C)=CCC/C(C)=C/CC/C(C)=C/CC[C@]1(C)CCc2c3c(c(C)c(C)c2O1)OCN(Cc1cccc([N+](=O)[O-])c1)C3 [Compound 28, (R)-5,6,8-trimethyl-2-(3-nitrobenzyl)-8-((3E,7E)-4,8,12-trimethyltrideca-3,7,11-trienyl)-1,2,3,8,9,10-hexahydrochromeno[5,6-e][1,3]oxazine] | significant activity but less so than Compounds 20 |
